Data published in ChEMBL document CHEMBL3112450, “Synthesis and in vitro antitumor evaluation of primary amine substituted quinazoline linked benzimidazole” (Bioorg Med Chem Lett, 2014).

How the values were obtained:
Format in all cases: functional
[1] = Cytotoxicity against human EKVX cells assessed as cell growth at 10^-5 M after 48 hrs by SRB assay; settings: read-out: Activity
[2] = system: BT-549; assay: Cytotoxicity against human BT549 cells assessed as cell growth at 10^-7 M after 48 hrs by SRB assay; settings: BT-549, 48 h, read-out: Activity
[3] = system: K562; assay: Cytotoxicity against human K562 cells after 48 hrs by SRB assay; settings: K562, 48 h
[4] = system: RXF 393; assay: Cytotoxicity against human RXF393 cells after 48 hrs by SRB assay; settings: RXF 393, 48 h
[5] = system: MDA-MB-231; assay: Cytotoxicity against human MDA-MB-231 cells assessed as cell growth at 10^-6 M after 48 hrs by SRB assay; settings: MDA-MB-231, 48 h, read-out: Activity
[6] = system: ACHN; assay: Cytotoxicity against human ACHN cells assessed as cell growth at 10^-4 M after 48 hrs by SRB assay; settings: read-out: Activity
[7] = system: RPMI-8226; assay: Cytotoxicity against human RPMI8226 cells assessed as cell growth at 10^-6 M after 48 hrs by SRB assay; settings: RPMI-8226, 48 h, read-out: Activity
[8] = system: SR; assay: Cytotoxicity against human SR cells assessed as cell growth at 10^-6 M after 48 hrs by SRB assay; settings: read-out: Activity
[9] = system: NCI-H226; assay: Cytotoxicity against human NCI-H226 cells assessed as cell growth at 10^-4 M after 48 hrs by SRB assay; settings: NCI-H226, 48 h, read-out: Activity
[10] = system: KM12; assay: Cytotoxicity against human KM12 cells assessed as cell growth at 10^-4 M after 48 hrs by SRB assay; settings: KM12, 48 h, read-out: Activity
[11] = system: SK-MEL-28; assay: Cytotoxicity against human SK-MEL-28 cells after 48 hrs by SRB assay; settings: SK-MEL-28, 48 h
[12] = Cytotoxicity against human Hs578T cells assessed as cell growth at 10^-8 M after 48 hrs by SRB assay; settings: Hs-578T, read-out: Activity
[13] = system: HL-60(TB); assay: Cytotoxicity against human HL-60(TB) cells assessed as cell growth at 10^-6 M after 48 hrs by SRB assay; settings: HL-60, 48 h, read-out: Activity
[14] = system: SW-620; assay: Cytotoxicity against human SW620 cells assessed as cell growth at 10^-7 M after 48 hrs by SRB assay; settings: SW-620, 48 h, read-out: Activity
[15] = system: SK-OV-3; assay: Cytotoxicity against human SKOV3 cells assessed as cell growth at 10^-4 M after 48 hrs by SRB assay; settings: SK-OV-3, 48 h, read-out: Activity
[16] = Cytotoxicity against human OVCAR4 cells assessed as cell growth at 10^-8 M after 48 hrs by SRB assay; settings: OVCAR-4, 48 h, read-out: Activity
[17] = system: IGROV-1; assay: Cytotoxicity against human IGROV1 cells assessed as cell growth at 10^-7 M after 48 hrs by SRB assay; settings: IGROV-1, 48 h, read-out: Activity
[18] = system: SK-OV-3; assay: Cytotoxicity against human SKOV3 cells after 48 hrs by SRB assay; settings: SK-OV-3, 48 h
[19] = system: T47D; assay: Cytotoxicity against human T47D cells assessed as cell growth at 10^-4 M after 48 hrs by SRB assay; settings: read-out: Activity
[20] = system: CAKI-1; assay: Cytotoxicity against human Caki1 cells assessed as cell growth at 10^-4 M after 48 hrs by SRB assay; settings: CAKI-1, 48 h, read-out: Activity
[21] = system: U-251; assay: Cytotoxicity against human U251 cells assessed as cell growth at 10^-6 M after 48 hrs by SRB assay; settings: U-251, 48 h, read-out: Activity
[22] = system: ACHN; assay: Cytotoxicity against human ACHN cells after 48 hrs by SRB assay
[23] = system: SK-OV-3; assay: Cytotoxicity against human SKOV3 cells assessed as cell growth at 10^-8 M after 48 hrs by SRB assay; settings: SK-OV-3, 48 h, read-out: Activity
[24] = Cytotoxicity against human OVCAR4 cells assessed as cell growth at 10^-4 M after 48 hrs by SRB assay; settings: OVCAR-4, 48 h, read-out: Activity
[25] = system: MOLT-4; assay: Cytotoxicity against human MOLT4 cells assessed as cell growth at 10^-7 M after 48 hrs by SRB assay; settings: MOLT-4, 48 h, read-out: Activity
[26] = system: SK-MEL-28; assay: Cytotoxicity against human SK-MEL-28 cells assessed as cell growth at 10^-6 M after 48 hrs by SRB assay; settings: SK-MEL-28, 48 h, read-out: Activity
[27] = system: SK-MEL-5; assay: Cytotoxicity against human SK-MEL-5 cells assessed as cell growth at 10^-4 M after 48 hrs by SRB assay; settings: SK-MEL-5, 48 h, read-out: Activity
[28] = Cytotoxicity against human Hs578T cells after 48 hrs by SRB assay; settings: Hs-578T
[29] = system: SF-268; assay: Cytotoxicity against human SF268 cells assessed as cell growth at 10^-7 M after 48 hrs by SRB assay; settings: SF-268, 48 h, read-out: Activity
[30] = Cytotoxicity against human Hs578T cells assessed as cell growth at 10^-6 M after 48 hrs by SRB assay; settings: Hs-578T, read-out: Activity
[31] = system: RPMI-8226; assay: Cytotoxicity against human RPMI8226 cells assessed as cell growth at 10^-4 M after 48 hrs by SRB assay; settings: RPMI-8226, 48 h, read-out: Activity
[32] = system: DU-145; assay: Cytotoxicity against human DU145 cells after 48 hrs by SRB assay; settings: DU-145, 48 h
[33] = system: DU-145; assay: Cytotoxicity against human DU145 cells assessed as cell growth at 10^-6 M after 48 hrs by SRB assay; settings: DU-145, 48 h, read-out: Activity
[34] = system: K562; assay: Cytotoxicity against human K562 cells assessed as cell growth at 10^-7 M after 48 hrs by SRB assay; settings: K562, 48 h, read-out: Activity
[35] = system: HOP-62; assay: Cytotoxicity against human HOP62 cells assessed as cell growth at 10^-6 M after 48 hrs by SRB assay; settings: HOP-62, 48 h, read-out: Activity
[36] = system: RXF 393; assay: Cytotoxicity against human RXF393 cells assessed as cell growth at 10^-7 M after 48 hrs by SRB assay; settings: RXF 393, 48 h, read-out: Activity
[37] = system: PC-3; assay: Cytotoxicity against human PC3 cells assessed as cell growth at 10^-7 M after 48 hrs by SRB assay; settings: PC-3, 48 h, read-out: Activity
[38] = system: NCI-H522; assay: Cytotoxicity against human NCI-H522 cells after 48 hrs by SRB assay; settings: NCI-H522, 48 h
[39] = system: M14; assay: Cytotoxicity against human M14 cells assessed as cell growth at 10^-8 M after 48 hrs by SRB assay; settings: M14, 48 h, read-out: Activity
[40] = read-out: LC50 (the source's name)

## C=CCn1c(C)nc2ccc(Nc3nc(Nc4ncccn4)nc4ccccc34)cc21
[1]
  growth at 10 µM: 87.2%

## C=CCn1c(C)nc2ccc(Nc3nc(NCCO)nc4ccccc34)cc21
[1]
  growth at 10 µM: 95.5%

## C=CCn1c(C)nc2cc(Nc3nc(Nc4ccc5nc(C)n(CC=C)c5c4)c4ccccc4n3)ccc21
[2]
  growth at 0.1 µM: 101%
[3]
  GI50: 218 nM
[4]
  GI50: 373 nM
  TGI: 1790 nM
[5]
  growth at 1 µM: -62%
[6]
  growth at 100 µM: -38%
[7]
  growth at 1 µM: 59%
[8]
  growth at 1 µM: -23%
[9]
  growth at 100 µM: -12%
[10]
  growth at 100 µM: -77%
[11]
  GI50: 2020 nM
  TGI: 3.86 µM
[12]
  growth at 0.01 µM: 90%
[13]
  growth at 1 µM: 90%
[14]
  growth at 0.1 µM: 98%
[15]
  growth at 100 µM: -29%
[16]
  growth at 0.01 µM: 93%
[17]
  growth at 0.1 µM: 106%
[18]
  GI50: 1900 nM
  TGI: 3.77 µM
[19]
  growth at 100 µM: -13%
[20]
  growth at 100 µM: -54%
[21]
  growth at 1 µM: -88%
[22]
  GI50: 610 nM
  TGI: 1.83 µM
[23]
  growth at 0.01 µM: 95%
[24]
  growth at 100 µM: -29%
[25]
  growth at 0.1 µM: 91%
[26]
  growth at 1 µM: 104%
[27]
  growth at 100 µM: -37%
[28]
  GI50: 2.16 µM
  LC50: > 100 µM
  TGI: 5.16 µM
[29]
  growth at 0.1 µM: 91%
[30]
  growth at 1 µM: 94%
[31]
  growth at 100 µM: -20%
[32]
  GI50: 0.402 µM
  LC50 (50% lethal concentration): 3.76 µM
  TGI: 1.41 µM
[33]
  growth at 1 µM: 18%
[34]
  growth at 0.1 µM: 99%
[35]
  growth at 1 µM: -34%
[36]
  growth at 0.1 µM: 88%
[37]
  growth at 0.1 µM: 96%
[38]
  GI50: 171 nM
  TGI: 0.332 µM
[39]
  growth at 0.01 µM: 100%

## C=CCn1c(C)nc2ccc(Nc3nc(Nc4ccc(F)cc4)nc4ccccc34)cc21
[2]
  growth at 0.1 µM: 94%
[3]
  GI50: 3130 nM
  LC50 (concentration killing 50% of cells): > 100 µM
  TGI: 11.9 µM
[4]
  GI50: 1230 nM
  TGI: 2570 nM
[4]; [40]
  CC50: 5.38 µM
[5]
  growth at 1 µM: 85%
[6]
  growth at 100 µM: -73%
[7]
  growth at 1 µM: 84%
[8]
  growth at 1 µM: 92%
[9]
  growth at 100 µM: -5%
[10]
  growth at 100 µM: -79%
[11]
  GI50: 1650 nM
  LC50: 5.94 µM
  TGI: 3.13 µM
[12]
  growth at 0.01 µM: 92%
[13]
  growth at 1 µM: 104%
[14]
  growth at 0.1 µM: 95%
[15]
  growth at 100 µM: -37%
[16]
  growth at 0.01 µM: 96%
[17]
  growth at 0.1 µM: 94%
[18]
  GI50: 1930 nM
  TGI: 3.74 µM
[19]
  growth at 100 µM: -13%
[20]
  growth at 100 µM: -53%
[21]
  growth at 1 µM: 83%
[22]
  GI50: 1990 nM
  LC50: 9.33 µM
  TGI: 4.31 µM
[23]
  growth at 0.01 µM: 96%
[24]
  growth at 100 µM: -13%
[25]
  growth at 0.1 µM: 96%
[26]
  growth at 1 µM: 89%
[27]
  growth at 100 µM: -69%
[28]
  GI50: 9.83 µM
  LC50: > 100 µM
  TGI: 56.7 µM
[29]
  growth at 0.1 µM: 90%
[30]
  growth at 1 µM: 86%
[31]
  growth at 100 µM: -36%
[32]
  GI50: 8.63 µM
  LC50 (50% lethal concentration): 54.7 µM
  TGI: 22.8 µM
[33]
  growth at 1 µM: 95%
[34]
  growth at 0.1 µM: 103%
[35]
  growth at 1 µM: 95%
[36]
  growth at 0.1 µM: 83%
[37]
  growth at 0.1 µM: 92%
[38]
  GI50: 3120 nM
  TGI: 13.4 µM
[38]; [40]
  CC50: 75.5 µM
[39]
  growth at 0.01 µM: 93%

## C=CCn1c(C)nc2cc(Nc3nc(Nc4ccc5nc(C)n(CC=C)c5c4)nc4ccccc34)ccc21
[1]
  growth at 10 µM: 97.1%

## C=CCn1c(C)nc2ccc(Nc3nc(Sc4ccc(N)cc4)nc4ccccc34)cc21
[1]
  growth at 10 µM: 96.5%
